# In PubChem BioAssay AID1963850 (Molecular Pharmacology Branch, DTP, NCI, 2024):
# Tested on: 192522-019-R-J2-PDC complex tumor spheroid viability
# Assay: Anticancer human tumor 192522-019-R-J2-PDC patient-derived colon adenocarcinoma cell line growth inhibition [POLQ]
# Settings: for IC50: curve of first compound; for viability, T/C: stronger effect = lower value
# How it was run: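 Growth inhibition in 3D: complex spheroids (tumor PDC, HUVEC, MSC) treated with POLQ inhibitor combinations; where Cmax unknown, highest tested concentration 10 microM, except SN-38 at 1 microM.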
# 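Further: spheroids exposed to drugs for seven days before reading.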
# 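Wherever viability, T/C is given: 100% = DMSO vehicle control viability in luminescence.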
smiles,measurement,setting,value
CC(=O)O[C@H]1C(=O)[C@@]2(C)[C@H]([C@H](OC(=O)c3ccccc3)[C@]3(O)C[C@H](OC(=O)[C@H](O)[C@@H](NC(=O)c4ccccc4)c4ccccc4)C(C)=C1C3(C)C)[C@]1(OC(C)=O)CO[C@@H]1C[C@@H]2O + Nc1ccc(C#CCN(C(=O)Cc2ncc(C(F)(F)F)cc2C(F)(F)F)c2ccc(F)cc2)nn1,IC50,second compound 0.0316 µM,> 3 µM
same,IC50,second compound 0.1 µM,> 3 µM
same,IC50,second compound 0.316 µM,> 3 µM
same,IC50,second compound 1 µM,> 3 µM
same,IC50,second compound 3.16 µM,> 3 µM
same,IC50,second compound 10 µM,> 3 µM
same,"viability, T/C","second compound 0.0316 µM, first compound 0.00949 µM",95.6%
same,"viability, T/C","second compound 0.0316 µM, first compound 0.03 µM",65.1%
same,"viability, T/C","second compound 0.0316 µM, first compound 0.0949 µM",50.2%
same,"viability, T/C","second compound 0.0316 µM, first compound 0.3 µM",57%
same,"viability, T/C","second compound 0.0316 µM, first compound 0.949 µM",56.9%
same,"viability, T/C","second compound 0.0316 µM, first compound 3 µM",60.2%
same,"viability, T/C","second compound 0.1 µM, first compound 0.00949 µM",95.3%
same,"viability, T/C","second compound 0.1 µM, first compound 0.03 µM",63.3%
same,"viability, T/C","second compound 0.1 µM, first compound 0.0949 µM",55.4%
same,"viability, T/C","second compound 0.1 µM, first compound 0.3 µM",54.8%
same,"viability, T/C","second compound 0.1 µM, first compound 0.949 µM",61.2%
same,"viability, T/C","second compound 0.1 µM, first compound 3 µM",50.2%
same,"viability, T/C","second compound 0.316 µM, first compound 0.00949 µM",88.7%
same,"viability, T/C","second compound 0.316 µM, first compound 0.03 µM",69.6%
same,"viability, T/C","second compound 0.316 µM, first compound 0.0949 µM",54.2%
same,"viability, T/C","second compound 0.316 µM, first compound 0.3 µM",58.2%
same,"viability, T/C","second compound 0.316 µM, first compound 0.949 µM",57.9%
same,"viability, T/C","second compound 0.316 µM, first compound 3 µM",54.9%
same,"viability, T/C","second compound 1 µM, first compound 0.00949 µM",86.3%
same,"viability, T/C","second compound 1 µM, first compound 0.03 µM",62.6%
same,"viability, T/C","second compound 1 µM, first compound 0.0949 µM",53.7%
same,"viability, T/C","second compound 1 µM, first compound 0.3 µM",51.3%
same,"viability, T/C","second compound 1 µM, first compound 0.949 µM",57.4%
same,"viability, T/C","second compound 1 µM, first compound 3 µM",50.9%
same,"viability, T/C","second compound 3.16 µM, first compound 0.00949 µM",85.5%
same,"viability, T/C","second compound 3.16 µM, first compound 0.03 µM",65.7%
same,"viability, T/C","second compound 3.16 µM, first compound 0.0949 µM",55.8%
same,"viability, T/C","second compound 3.16 µM, first compound 0.3 µM",54.6%
same,"viability, T/C","second compound 3.16 µM, first compound 0.949 µM",59.2%
same,"viability, T/C","second compound 3.16 µM, first compound 3 µM",56%
same,"viability, T/C","second compound 10 µM, first compound 0.00949 µM",80%
same,"viability, T/C","second compound 10 µM, first compound 0.03 µM",66.3%
same,"viability, T/C","second compound 10 µM, first compound 0.0949 µM",60.2%
same,"viability, T/C","second compound 10 µM, first compound 0.3 µM",61.2%
same,"viability, T/C","second compound 10 µM, first compound 0.949 µM",60.9%
same,"viability, T/C","second compound 10 µM, first compound 3 µM",56.5%
CC[C@@]1(O)C(=O)OCc2c1cc1n(c2=O)Cc2cc3c(CN(C)C)c(O)ccc3nc2-1 + Nc1ccc(C#CCN(C(=O)Cc2ncc(C(F)(F)F)cc2C(F)(F)F)c2ccc(F)cc2)nn1,IC50,second compound 0.0316 µM,> 0.1 µM
same,IC50,second compound 0.1 µM,> 0.1 µM
same,IC50,second compound 0.316 µM,> 0.1 µM
same,IC50,second compound 1 µM,> 0.1 µM
same,IC50,second compound 3.16 µM,> 0.1 µM
same,IC50,second compound 10 µM,> 0.1 µM
same,"viability, T/C","second compound 0.0316 µM, first compound 0.000316 µM",96.2%
same,"viability, T/C","second compound 0.0316 µM, first compound 0.001 µM",103%
same,"viability, T/C","second compound 0.0316 µM, first compound 0.00316 µM",97.1%
same,"viability, T/C","second compound 0.0316 µM, first compound 0.01 µM",108%
same,"viability, T/C","second compound 0.0316 µM, first compound 0.0316 µM",98.5%
same,"viability, T/C","second compound 0.0316 µM, first compound 0.1 µM",77.3%
same,"viability, T/C","second compound 0.1 µM, first compound 0.000316 µM",111%
same,"viability, T/C","second compound 0.1 µM, first compound 0.001 µM",105%
same,"viability, T/C","second compound 0.1 µM, first compound 0.00316 µM",103%
same,"viability, T/C","second compound 0.1 µM, first compound 0.01 µM",99%
same,"viability, T/C","second compound 0.1 µM, first compound 0.0316 µM",107%
same,"viability, T/C","second compound 0.1 µM, first compound 0.1 µM",79.1%
same,"viability, T/C","second compound 0.316 µM, first compound 0.000316 µM",107%
same,"viability, T/C","second compound 0.316 µM, first compound 0.001 µM",109%
same,"viability, T/C","second compound 0.316 µM, first compound 0.00316 µM",97.8%
same,"viability, T/C","second compound 0.316 µM, first compound 0.01 µM",103%
same,"viability, T/C","second compound 0.316 µM, first compound 0.0316 µM",95.7%
same,"viability, T/C","second compound 0.316 µM, first compound 0.1 µM",77.7%
same,"viability, T/C","second compound 1 µM, first compound 0.000316 µM",113%
same,"viability, T/C","second compound 1 µM, first compound 0.001 µM",104%
same,"viability, T/C","second compound 1 µM, first compound 0.00316 µM",106%
same,"viability, T/C","second compound 1 µM, first compound 0.01 µM",109%
same,"viability, T/C","second compound 1 µM, first compound 0.0316 µM",97.8%
same,"viability, T/C","second compound 1 µM, first compound 0.1 µM",78.2%
same,"viability, T/C","second compound 3.16 µM, first compound 0.000316 µM",99.6%
same,"viability, T/C","second compound 3.16 µM, first compound 0.001 µM",99.9%
same,"viability, T/C","second compound 3.16 µM, first compound 0.00316 µM",103%
same,"viability, T/C","second compound 3.16 µM, first compound 0.01 µM",99.3%
same,"viability, T/C","second compound 3.16 µM, first compound 0.0316 µM",97.5%
same,"viability, T/C","second compound 3.16 µM, first compound 0.1 µM",84.8%
same,"viability, T/C","second compound 10 µM, first compound 0.000316 µM",106%
same,"viability, T/C","second compound 10 µM, first compound 0.001 µM",94.7%
same,"viability, T/C","second compound 10 µM, first compound 0.00316 µM",101%
same,"viability, T/C","second compound 10 µM, first compound 0.01 µM",95.1%
same,"viability, T/C","second compound 10 µM, first compound 0.0316 µM",92.3%
same,"viability, T/C","second compound 10 µM, first compound 0.1 µM",87%
